Source: US10760110B2, “Antibiotic testing and screening system” (priority 2017, dated 2020)
≈ marks a conversion by molar mass, not a printed value. Where two headings read alike, the source gives them in different places.

Assays:
Settings in all cases: Klebsiella pneumoniae
[1] = system: K. pneumoniae NVT1001 ΔramRΔompK35/36 mutant and its revertants; assay: Etest MIC, ΔramRΔompK35/36 mutant and its revertants (Table 7); assay type: cell-based
[2] = system: K. pneumoniae NVT1001 strains with carbapenemase plasmids; assay: Etest MIC of β-lactams, OmpK35/36 loss, ΔramR and/or carbapenemase (Table 9); assay type: cell-based, Klebsiella pneumoniae
Outline: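 Cloned resistance genes in pACYC177 or pACYC184 were electroporated into K. pneumoniae NVT1001. MICs were determined by Etest and rounded up to the next two-fold value. Ceftazidime and cefotaxime against the blaOXA-48 construct were also tested by CLSI broth microdilution, with breakpoints from CLSI 2017 (cephalothin CLSI 2015, moxifloxacin EUCAST 2017).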

[3] = system: K. pneumoniae NVT1001 and its ΔompK35/36 and/or ΔramR mutants; assay: Etest MIC, OmpK35/36 loss and AcrAB-TolC overexpression (ΔramR) strains (Table 6); assay type: cell-based, Klebsiella pneumoniae
Outline: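 MICs were read by Etest strip following the manufacturer's instructions, and values falling between standard two-fold dilutions were rounded up to the next two-fold step. Ceftazidime and cefotaxime were also tested by CLSI broth microdilution and interpreted against CLSI 2017 breakpoints; cephalothin used CLSI 2015 and moxifloxacin EUCAST 2017.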

CC(C)(O/N=C(\C(=O)N[C@@H]1C(=O)N2C(C(=O)[O-])=C(C[n+]3ccccc3)CS[C@H]12)c1csc(N)n1)C(=O)O [Ceftazidime]
MIC ([1]; ΔramRΔompK35/36::ompK35/36 revertant): 2 µg/mL
MIC ([1]; ΔramRΔompK35/36::ompK35 revertant): 2 µg/mL
MIC ([1]; ΔramRΔompK35/36::ompK36 revertant): 2 µg/mL
MIC ([1]; ΔramRΔompK35/36::ramR revertant): 1 µg/mL
MIC ([1]; ΔramRΔompK35/36::ramR::ompK35/36 revertant): 0.25 µg/mL
MIC ([1]; ΔramRΔompK35/36::ramR::ompK35 revertant): 0.25 µg/mL
MIC ([1]; ΔramRΔompK35/36::ramR::ompK36 revertant): 1 µg/mL
MIC ([1]; ΔramRΔompK35/36 mutant): 2 µg/mL
MIC ([2]; IMP-8 on pACYC177, WT (NVT1001), read-out: MIC): > 256 µg/mL
MIC ([2]; IMP-8 on pACYC177, Δ35 (ΔompK35 mutant)): > 256 µg/mL
MIC ([2]; IMP-8 on pACYC177, Δ35/36 (ΔompK35/36 mutant)): > 256 µg/mL
MIC ([2]; IMP-8 on pACYC177, Δ36 (ΔompK36 mutant)): > 256 µg/mL
MIC ([2]; IMP-8 on pACYC177, ΔramR mutant): > 256 µg/mL
MIC ([2]; IMP-8 on pACYC177, ΔramRΔ35 (ΔramRΔompK35 mutant)): > 256 µg/mL
MIC ([2]; IMP-8 on pACYC177, ΔramRΔ35/36 (ΔramRΔompK35/36 mutant)): > 256 µg/mL
MIC ([2]; IMP-8 on pACYC177, ΔramRΔ36 (ΔramRΔompK36 mutant)): > 256 µg/mL
MIC ([2]; KPC-2 on pACYC177, WT (NVT1001), read-out: MIC): 16 µg/mL
MIC ([2]; KPC-2 on pACYC177, Δ35 (ΔompK35 mutant)): 64 µg/mL
MIC ([2]; KPC-2 on pACYC177, Δ35/36 (ΔompK35/36 mutant)): 256 µg/mL
MIC ([2]; KPC-2 on pACYC177, Δ36 (ΔompK36 mutant)): 32 µg/mL
MIC ([2]; KPC-2 on pACYC177, ΔramR mutant): 128 µg/mL
MIC ([2]; KPC-2 on pACYC177, ΔramRΔ35 (ΔramRΔompK35 mutant)): 128 µg/mL
MIC ([2]; KPC-2 on pACYC177, ΔramRΔ35/36 (ΔramRΔompK35/36 mutant)): 128 µg/mL
MIC ([2]; KPC-2 on pACYC177, ΔramRΔ36 (ΔramRΔompK36 mutant)): 128 µg/mL
MIC ([2]; KPC-3 on pACYC177, WT (NVT1001), read-out: MIC): 128 µg/mL
MIC ([2]; KPC-3 on pACYC177, Δ35 (ΔompK35 mutant)): > 256 µg/mL
MIC ([2]; KPC-3 on pACYC177, Δ35/36 (ΔompK35/36 mutant)): > 256 µg/mL
MIC ([2]; KPC-3 on pACYC177, Δ36 (ΔompK36 mutant)): 128 µg/mL
MIC ([2]; KPC-3 on pACYC177, ΔramR mutant): > 256 µg/mL
MIC ([2]; KPC-3 on pACYC177, ΔramRΔ35 (ΔramRΔompK35 mutant)): > 256 µg/mL
MIC ([2]; KPC-3 on pACYC177, ΔramRΔ35/36 (ΔramRΔompK35/36 mutant)): > 256 µg/mL
MIC ([2]; KPC-3 on pACYC177, ΔramRΔ36 (ΔramRΔompK36 mutant)): > 256 µg/mL
MIC ([2]; NDM-1 on pACYC177, WT (NVT1001), read-out: MIC): > 256 µg/mL
MIC ([2]; NDM-1 on pACYC177, Δ35 (ΔompK35 mutant)): > 256 µg/mL
MIC ([2]; NDM-1 on pACYC177, Δ35/36 (ΔompK35/36 mutant)): > 256 µg/mL
MIC ([2]; NDM-1 on pACYC177, Δ36 (ΔompK36 mutant)): > 256 µg/mL
MIC ([2]; NDM-1 on pACYC177, ΔramR mutant): > 256 µg/mL
MIC ([2]; NDM-1 on pACYC177, ΔramRΔ35 (ΔramRΔompK35 mutant)): > 256 µg/mL
MIC ([2]; NDM-1 on pACYC177, ΔramRΔ35/36 (ΔramRΔompK35/36 mutant)): > 256 µg/mL
MIC ([2]; NDM-1 on pACYC177, ΔramRΔ36 (ΔramRΔompK36 mutant)): > 256 µg/mL
MIC ([2]; OXA-48 on pACYC177, WT (NVT1001), read-out: MIC): 0.5 µg/mL
MIC ([2]; OXA-48 on pACYC177, Δ35 (ΔompK35 mutant)): 1 µg/mL
MIC ([2]; OXA-48 on pACYC177, Δ35/36 (ΔompK35/36 mutant)): 2 µg/mL
MIC ([2]; OXA-48 on pACYC177, Δ36 (ΔompK36 mutant)): 0.5 µg/mL
MIC ([2]; OXA-48 on pACYC177, ΔramR mutant): 2 µg/mL
MIC ([2]; OXA-48 on pACYC177, ΔramRΔ35 (ΔramRΔompK35 mutant)): 2 µg/mL
MIC ([2]; OXA-48 on pACYC177, ΔramRΔ35/36 (ΔramRΔompK35/36 mutant)): 2 µg/mL
MIC ([2]; OXA-48 on pACYC177, ΔramRΔ36 (ΔramRΔompK36 mutant)): 2 µg/mL
MIC ([2]; VIM-1 on pACYC177, WT (NVT1001), read-out: MIC): > 256 µg/mL
MIC ([2]; VIM-1 on pACYC177, Δ35 (ΔompK35 mutant)): > 256 µg/mL
MIC ([2]; VIM-1 on pACYC177, Δ35/36 (ΔompK35/36 mutant)): > 256 µg/mL
MIC ([2]; VIM-1 on pACYC177, Δ36 (ΔompK36 mutant)): > 256 µg/mL
MIC ([2]; VIM-1 on pACYC177, ΔramR mutant): > 256 µg/mL
MIC ([2]; VIM-1 on pACYC177, ΔramRΔ35 (ΔramRΔompK35 mutant)): > 256 µg/mL
MIC ([2]; VIM-1 on pACYC177, ΔramRΔ35/36 (ΔramRΔompK35/36 mutant)): > 256 µg/mL
MIC ([2]; VIM-1 on pACYC177, ΔramRΔ36 (ΔramRΔompK36 mutant)): > 256 µg/mL
MIC ([2]; no supplemental plasmid, WT (NVT1001), read-out: MIC): 0.25 µg/mL
MIC ([2]; no supplemental plasmid, Δ35 (ΔompK35 mutant)): 0.5 µg/mL
MIC ([2]; no supplemental plasmid, Δ35/36 (ΔompK35/36 mutant)): 1 µg/mL
MIC ([2]; no supplemental plasmid, Δ36 (ΔompK36 mutant)): 0.5 µg/mL
MIC ([2]; no supplemental plasmid, ΔramR mutant): 2 µg/mL
MIC ([2]; no supplemental plasmid, ΔramRΔ35 (ΔramRΔompK35 mutant)): 2 µg/mL
MIC ([2]; no supplemental plasmid, ΔramRΔ35/36 (ΔramRΔompK35/36 mutant)): 2 µg/mL
MIC ([2]; no supplemental plasmid, ΔramRΔ36 (ΔramRΔompK36 mutant)): 2 µg/mL
MIC ([3]; WT, NVT1001, read-out: MIC): 0.25 µg/mL (≈ 0.457 µM)
MIC ([3]; Δ35, ΔompK35 mutant): 0.5 µg/mL (≈ 0.915 µM)
MIC ([3]; Δ35/36, ΔompK35/36 mutant): 1 µg/mL (≈ 1.83 µM)
MIC ([3]; Δ36, ΔompK36 mutant): 0.5 µg/mL (≈ 0.915 µM)
MIC ([3]; ΔramR mutant): 2 µg/mL (≈ 3.66 µM)
MIC ([3]; ΔramRΔ35, ΔramRΔompK35 mutant): 2 µg/mL (≈ 3.66 µM)
MIC ([3]; ΔramRΔ35/36, ΔramRΔompK35/36 mutant): 2 µg/mL (≈ 3.66 µM)
MIC ([3]; ΔramRΔ36, ΔramRΔompK36 mutant): 2 µg/mL (≈ 3.66 µM)
